According to patent US8871288B2, “Aromatic neomenthylamides as flavoring substances” (Symrise AG, priority 2007, dated 2014):

Tests used:
[1] = Flavor impression of the individual compounds; format: in vivo; conditions: tasting of the compound as such
[2] = cited from earlier work; for sensorial impression: prior art (US 2004/0202760, US 2004/0202619, US 2006/057268, 2006/068071); for effect in the oral cavity: known naturally occurring alkamides
[3] = Flavor comparison in American beef bouillon base with MSG, panel of trained testers (FIG. 1); format: in vivo; conditions: 5 ppm of 1:1 mixture in American beef bouillon base vs base with 0.05% by weight MSG
Experimental: This is also shown by the spider diagram which is appended as FIG. 1 and in which an American beef bouillon as a base is compared (i) to a base of the type to which 5 ppm of a 1:1 mixture of benzo[1,3]dioxol-5-carboxylic acid ((1S,2S,5R)-2-isopropyl-5-methylcyclohexyl)amide (3) and benzo[1,3]dioxol-5-carboxylic acid ((1R,2R,5S)-2-isopropyl-5-methylcyclohexyl)amide (4) are added and (ii) to a base of the type to which 0.05% by weight of MSG (sodium glutamate) is added.
The flavor of a 0.5% American beef extract as a base (solid, light line) was compared, based on a tasting performed by a panel of trained testers, with the flavor firstly of a base of this type to which 5 ppm of a mixture of benzo[1,3]dioxol-5-carboxylic acid ((1S,2S,5R)-2-isopropyl-5-methylcyclohexyl)amide (3) and benzo[1,3]dioxol-5-carboxylic acid ((1R,2R,5S)-2-isopropyl-5-methylcyclohexyl)amide (4) were added (solid, dark line), and secondly of a base of this type to which 0.05% by weight of MSG was added (dotted line).
The testers judged the […] of the specified types of flavor in each case by awarding scores on a scale of from 0 (no corresponding flavor) to 6 (very strong corresponding flavor). The average values of the respective scores are shown.

[4] = Panel tasting, green tea drink (Application Example 11); format: in vivo; conditions: 0.004% by weight of a 1% solution in propylene glycol in green tea drink, sterilized at 118° C.
Experimental: The green tea concentrate is mixed with a 1% solution of a 1:1 mixture of the compounds (3)+(4) in propylene glycol. Afterwards, demineralized water is poured in and the mixture is again thoroughly stirred. Then the product is filtered, packed ready for consumption and sterilized at 118° C.

Molecule	flavor impression [1]	sensorial impression [2]	further results
COC(=O)c1ccc(C(=O)N[C@H]2C[C@H](C)CC[C@H]2C(C)C)cc1 [(1), N-((1S,2S,5R)-2-isopropyl-5-methylcyclohexyl)terephthalic acid methyl ester]	umami flavor without very bitter accompanying notes	–	–
COC(=O)c1ccc(C(=O)N[C@@H]2C[C@@H](C)CC[C@@H]2C(C)C)cc1 [(2), N-((1R,2R,5S)-2-isopropyl-5-methylcyclohexyl)terephthalic acid methyl ester]	umami flavor without very bitter accompanying notes	–	–
CC(C)[C@@H]1CC[C@@H](C)C[C@@H]1NC(=O)c1ccc2c(c1)OCO2 [(3), benzo[1,3]dioxol-5-carboxylic acid ((1S,2S,5R)-2-isopropyl-5-methylcyclohexyl)amide]	very strong umami flavor	–	–
CC(C)[C@H]1CC[C@H](C)C[C@H]1NC(=O)c1ccc2c(c1)OCO2 [(4), benzo[1,3]dioxol-5-carboxylic acid ((1R,2R,5S)-2-isopropyl-5-methylcyclohexyl)amide]	very strong umami flavor	–	–
CC(C)[C@@H]1CC[C@@H](C)C[C@@H]1NC(=O)Cc1ccc2c(c1)OCO2 [(5), 2-benzo[1,3]dioxol-5-yl-N-((1S,2S,5R)-2-isopropyl-5-methylcyclohexyl)acetamide]	in addition to an umami flavor, a slightly salty note	–	–
CC(C)[C@H]1CC[C@H](C)C[C@H]1NC(=O)Cc1ccc2c(c1)OCO2 [(6), 2-benzo[1,3]dioxol-5-yl-N-((1R,2R,5S)-2-isopropyl-5-methylcyclohexyl)acetamide]	in addition to an umami flavor, a slightly salty note	–	–
CC(C)=CCCC(C)=CCNC(=O)C1CC1 [N-3,7-dimethyl-2,6-octadienyl cyclopropylcarboxamide]	–	salt and umami intensifier	–
CC/C=C\CC/C=C/C(=O)NC1CC1 [N-cyclopropyl-E2,Z6-nonadienamide]	–	MSG-like effect	–
CCCCC/C=C\CC/C=C/C(=O)NCC [N-ethyl-E2,Z6-dodecadienamide]	–	MSG-like effect	–
CC/C=C\CC/C=C/C(=O)NCC [N-ethyl-E2,Z6-nonadienamide]	–	MSG-like effect	–
CCCCC/C=C/C=C/C(=O)NCC(C)C [pellitorine]	–	–	effect in the oral cavity [2]: a salivatory and tingling effect, a long-lasting and numbing effect in the oral cavity
C/C=C/C=C\CC/C=C/C(=O)NCC(C)C [spilanthol]	–	–	effect in the oral cavity [2]: a salivatory and tingling effect, a long-lasting and numbing effect in the oral cavity
Benzo[1,3]dioxole-5-carboxylic acid((1S,2S,5R)-2-isopropyl-5-methylcyclohexyl)amide (3)/benzo[1,3]dioxole-5-carboxylic acid((1R,2R,5S)-2-isopropyl-5-methylcyclohexyl)amide (4) [1:1 mixture of the compounds (3)+(4)]	–	–	flavor compared to other umami-tasting compounds and to sodium glutamate (MSG) [3]: clear umami flavor which is very similar to sodium glutamate (MSG); taste compared to the non-aromatized green tea base [4]: clearly preferable
